According to article PMC3407616, “Inhibition of Heme Peroxidases by Melamine” (Enzyme Research, 2012):

Key:
lactoperoxidase (LPO) = lactoperoxidase (LPO) (Bos taurus, UniProt P80025); assay: iodide oxidation (HOI formation), absorbance […] nm, kinetic fit; type: biochemical; conditions: read-out: LPO^b
I = assay: purified protein; conditions: pH 6.0

| Ki (lactoperoxidase (LPO)) | Molecule | Km (I) |
| --- | --- | --- |
| 15 ± 5 mM | Nc1nc(N)nc(N)n1 [melamine, 2,4,6-triamino-1,3,5-triazine] |  |
|  | lactoperoxidase (LPO) (Bos taurus) | 2900 ± 400 µM |
